Measured values taken from patent publication US20230351587A1, “METHODS AND SYSTEMS FOR PREDICTING NEURODEGENERATIVE DISEASE STATE” (New York Stem Cell Foundation, Inc., priority 2020, published 2023).

Test system: healthy, LRRK2, and sporadic PD cells
Assay: Relative distance between treated cell groups and 0.16% DMSO control (morphological profiles)
Format: cell-based, human
Settings: vs 0.16% DMSO; tile embeddings, single cell embeddings and feature vector models; three increasing doses; FIGS. 13A-13C
Procedure: In this example, the same automated platform as described above in Examples 1 and 2 was implemented to morphologically profile large collections of cells that were treated using any of a number of perturbations. Example perturbations include bafilomycin, carbonyl cyanide m-chlorophenyl hydrazone (CCCP), MG312, rotenone, valinomycin as well as control groups (untreated and 0.16% DMSO). Specifically, healthy or PD cells of known subtype (e.g., LRKK2 subtype or sporadic subtype) were cultured in vitro and treated with varying doses of the perturbations. For example, for bafilomycin, treatments included 15.63 nM, 31.25 nM, and 62.5 nM bafilomycin. For CCCP, the treatments included 390.5 nM, 781 nM, and 1562 nM. For MG312, the treatments included 234.38 nM, 468.75 nM, and 937.5 nM. For rotenone, the treatments included 7.81 nM, 15.63 nM, and 31.25 nM. For valinomycin, the treatments included 3.91 nM, 7.81 nM, and 15.63 nM.
Following in vitro treatment of healthy cells and PD subtype cells using the aforementioned concentrations of perturbagens, the cells were imaged using the automated imaging platform and subsequently analyzed using predictive models. In particular, three predictive models were implemented: 1) predictive model including tile embeddings, 2) predictive model including single cell embeddings, and 3) predictive model including extracted features (e.g., CellProfiler features). […]

Structure (SMILES): CO/C1=C\C(C)=C\[C@@H](C)[C@@H](O)[C@@H](C)C/C(C)=C/C=C/[C@H](OC)[C@@H]([C@@H](C)[C@@H](O)[C@H](C)[C@@]2(O)C[C@@H](O)[C@H](C)[C@@H](C(C)C)O2)OC1=O [Bafilomycin, bafilomycin]
- relative distance between treated cell groups in comparison to controls: increase in distance in response to increasing dose
